Patent US11274125B2, “Amyloid-beta-binding peptides and the use thereof for the treatment and diagnosis of Alzheimer's disease” (FORSCHUNGSZENTRUM JUELICH GMBH, priority 2013, dated 2022)
Entries after “also recorded” stand apart in the source; their conditions may differ. Where no end group is shown, it is not given here. [ ]: non-standard residue; d: D form.

Legend:
[1] = target: T1, amyloid beta oligomers (Aß1-42) (Homo sapiens, UniProt P05067); test: SPR binding kinetics, amyloid beta oligomer
T1 construct: 1 mg lyophilized Aß1-42 and N-terminal biotinylated Aß1-42; biotin (only on part of the peptide molecules)
Protocol: (§1) 1 mg lyophilized Aß1-42 and N-terminal biotinylated Aß1-42 were each dissolved in 1 ml 100% hexafluoroisopropanol (HFIP) and dissolved overnight at room temperature. For the oligomer and fibril preparation, non-biotinylated Aß was used with N-terminal biotinylated Aß at a ratio of 1:10 and the HFIP was evaporated (Concentrator 5301 from Eppendorf). The resultant Aß film, at a final concentration of 80 μM, was placed in sodium phosphate buffer (10 mM, pH 7.4) and incubated (RT, 600 rpm). The incubation time was 3 h for the oligomer preparation, and 24 h for the fibril preparation. 100% N-terminal biotinylated Aß1-42 without incubation was used for the preparation of monomers.
(§2) The density gradient centrifugation was carried out subsequent to the Aß preparation to purify the respective Aß species according to the size of the same. An iodixanol gradient in 10 mM sodium phosphate buffer, pH 7.4 with rising concentrations from 50% to 5% v/v iodixanol was used for this purpose. 100 μl of the Aß sample was applied and separated by way of ultracentrifugation (3 h, 4° C., 259000 g). Subsequently, the gradient was fractionated into 14 fractions, 140 μl each. Monomeric Aß are present in the first two top fractions, Aß oligomers in fractions 4 to 6, and Aß fibrils in fractions 1 to 13.
Immobilization for Surface Plasmon Resonance (SPR) Spectroscopy A T200 from Biacore (GE Healthcare) was used for SPR spectroscopy. The Aß species purified by way of density gradient centrifugation were directly immobilized on a sensor chip (Series S Sensor Chips SA) according to the manufacturer's instructions by way of biotin-streptavidin coupling. 1×PBS was used as the running buffer. Loading took place at 25° C. and a flow rate of 5 μl/min. […]
(§3) Binding kinetics were likewise measured by way of SPR spectroscopy using a T200 device from Biacore (GE Healthcare). […] The binding curves were evaluated by way of kinetic fit models (heterogeneous binding model) using the Biacore T200 evaluation software (version 2.0). […]

TgSwDI mouse model [2] = test: Morris water maze; type: in vivo; conditions: TgSwDI mice, 7 mg/4 weeks i.p. (micropump), day 5, FIG. 4; listed as RD2D3 (amidated)
Protocol: FIG. 4: The so-called “Morris water maze” is used to measure the spatial memory of animals. The time is measured in seconds that the animal requires to locate a platform hidden closely beneath the water surface in a water tank. This is measured in several experiments per day on several consecutive days. […] The search time is plotted in seconds on five consecutive days. The learning of animals treated with RD2D3 (amidated) was significant.

TgSwDI mouse model [3] = test: Object recognition test (ORT); type: in vivo; conditions: TgSwDI mice
Protocol: FIG. 1: Here, the result of the so-called “object recognition test” (ORT) is shown. Animals treated with D3D3 (amidated) (details in Table 2) and animals treated with placebo were placed individually and separately from each other in a box in which two objects were located. After the animals had time to explore both objects, the animals were removed from the box again and not placed back in there until 24 hours later. Before that, however, one object was replaced with a new object different therefrom. Animals having memory now preferably explore the new object. Animals having no memory of having stayed in the box 24 hours earlier spend the same amount of time exploring the old object and the new object. The time that the animal spends with the old object (white bars) and the new object (black bars) is measured in seconds. It is clearly apparent that the animals treated with the placebo spend the same amount of time with the new and the old objects. […] Thus, only the animals treated with D3D3 show a functioning memory in the test.
FIG. 5: Here, the result of the so-called “object recognition test” (ORT) is shown. Animals treated with RD2D3 (amidated) (details in Table 2) and animals treated with placebo were placed individually and separately from each other in a box in which two objects were located. After the animals had time to explore both objects, the animals were removed from the box again and not placed back in there until 24 hours later. Before that, however, one object was replaced with a new object different therefrom. Animals having memory now preferably explore the new object. Animals having no memory of having stayed in the box 24 hours earlier spend the same amount of time exploring the old object and the new object. The time that the animal spends with the old object (black bars) and the new object (white bars) is measured in seconds. It is clearly apparent that the animals treated with the placebo spent the same amount of time with the new and the old objects.

[4] = target: T2, amyloid beta fibrils (Aß1-42) (Homo sapiens, UniProt P05067); test: SPR binding kinetics, amyloid beta fibrils; conditions: heterogeneous binding model, FIG. 8
T2 construct: 1 mg lyophilized Aß1-42 and N-terminal biotinylated Aß1-42; biotin (only on part of the peptide molecules)
Protocol: as §1
as §2, with “Subsequently, the gradient was fractionated into 14 fractions, 140 μl each. Monomeric Aß are present in the first two top fractions, Aß oligomers in fractions 4 to 6, and Aß fibrils in fractions 1 to 13.” left out
as §3

TBA 2.1 mice [5] = test: SHIRPA test; type: in vivo, mouse; conditions: 0.1 mg/day i.p. for 4 weeks (micropump), before vs after treatment, FIG. 3, listed as D3D3 (amidated)
Protocol: FIG. 3: The SHIRPA test is a test where a number of characteristics, including reflexes, are tested. Each characteristic is assessed separately from the others, and points are awarded in each case. The higher the number of points, the more progressed the phenotype, which is to say the neurological damage, is. The SHIRPA test was measured prior to (black bars) and after (white bards) the treatment (treatment details are provided in Table 2). […] D3D3 thus acts more efficiently than D3.

TBA 2.1 mice [6] = test: Rotarod test; type: in vivo, mouse; conditions: 0.1 mg/day i.p. for 4 weeks (micropump), before vs after treatment
Description: FIG. 2: The so-called “rotarod” test is used to measure how long an animal is able to balance on a rotating rod before falling off. This allows the animal's neuromotor performance to be measured. The longer the animal is able to balance, the less strongly the motor neurons are affected by the phenotype of neurodegeneration. The difference between before and after treatment is plotted in seconds. […] As expected, the degeneration has thus progressed. […] Thus, the treatment slowed, or even stopped, the neurodegeneration in both instances.

T1 sequence (P05067 672-713): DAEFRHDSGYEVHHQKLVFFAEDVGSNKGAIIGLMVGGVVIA
T2 sequence (P05067 672-713): as above

With “rprtrlhthrnr ([dR][dP][dR][dT][dR][dL][dH][dT][dH][dR][dN][dR]) [linear D3, known D-enantiomeric peptide D3, linear, unmodified C-terminal carboxyl group, reference compound]” as the substance, how does the “Binding strength (KD, kinetics) to amyloid beta oligomer” value ([1]; heterogeneous binding model, FIG. 7) read?
The value was “binds only a low-affinity site, but not a high-affinity site”.

Which results are given for “RD2D3 amidated: dimer RD2D3 (SEQ ID NO: 4), amidated at position 24 at the free C-terminus ([dP][dT][dL][dH][dT][dH][dN][dR][dR][dR][dR][dR][dR][dP][dR][dT][dR][dL][dH][dT][dH][dR][dN][dR]-NH2; N-terminus assumed; SMILES CC(C)C[C@@H](NC(=O)[C@@H](CCCNC(=N)N)NC(=O)[C@H](NC(=O)[C@@H](CCCNC(=N)N)NC(=O)[C@H]1CCCN1C(=O)[C@@H](CCCNC(=N)N)NC(=O)[C@@H](CCCNC(=N)N)NC(=O)[C@@H](CCCNC(=N)N)NC(=O)[C@@H](CCCNC(=N)N)NC(=O)[C@@H](CCCNC(=N)N)NC(=O)[C@@H](CCCNC(=N)N)NC(=O)[C@@H](CC(N)=O)NC(=O)[C@@H](Cc1c[nH]cn1)NC(=O)[C@H](NC(=O)[C@@H](Cc1c[nH]cn1)NC(=O)[C@@H](CC(C)C)NC(=O)[C@H](NC(=O)[C@H]1CCCN1)[C@H](C)O)[C@H](C)O)[C@H](C)O)C(=O)N[C@H](Cc1c[nH]cn1)C(=O)N[C@@H](C(=O)N[C@H](Cc1c[nH]cn1)C(=O)N[C@H](CCCNC(=N)N)C(=O)N[C@H](CC(N)=O)C(=O)N[C@H](CCCNC(=N)N)C(N)=O)[C@H](C)O)”?
Water maze (TgSwDI mouse model [2]): able to improve the cognition of SweDI mice; Object recognition (TgSwDI mouse model [3]; 7 mg/4 weeks i.p. (micropump), FIG. 5): significant; Object recognition (TgSwDI mouse model [3]; 7 mg/4 weeks i.p. (micropump), FIG. 5, listed as RD2D3 (amidated)): spend much more time with the new object; also recorded: able to improve the cognition of SweDI mice

How did the “Binding strength (KD, kinetics) to amyloid beta fibrils” value [4] turn out when RKRTRLHTHRNR [cD3(P2K)] was run?
Its value is “sub-pM binding range”.

“cD3z: cD3 zero, cyclized D3 without any further amino acid attachments (cyclo([dR][dP][dR][dT][dR][dL][dH][dT][dH][dR][dN][dR]); SMILES CC(C)C[C@H]1NC(=O)[C@@H](CCCNC(=N)N)NC(=O)[C@@H]([C@H](C)O)NC(=O)[C@@H](CCCNC(=N)N)NC(=O)[C@H]2CCCN2C(=O)[C@@H](CCCNC(=N)N)NC(=O)[C@@H](CCCNC(=N)N)NC(=O)[C@@H](CC(N)=O)NC(=O)[C@@H](CCCNC(=N)N)NC(=O)[C@@H](Cc2c[nH]cn2)NC(=O)[C@@H]([C@H](C)O)NC(=O)[C@@H](Cc2c[nH]cn2)NC1=O)” was tested. Which “Rmax, contribution of KD2 (high-affinity site) to RU total loading” value ([1]; oligomers, FIG. 7, high-affinity site) did it give?
The value was 21%.

And the “Rmax, contribution of the low-affinity site to RU total loading” value ([1]; oligomers, FIG. 7, low-affinity site (white bar))?
Its value is 79%.

For “D3D3 amidated: dimer D3D3 (SEQ ID NO: 6), amidated at position 24 at the free C-terminus ([dR][dP][dR][dT][dR][dL][dH][dT][dH][dR][dN][dR][dR][dP][dR][dT][dR][dL][dH][dT][dH][dR][dN][dR]-NH2; N-terminus assumed; SMILES CC(C)C[C@@H](NC(=O)[C@@H](CCCNC(=N)N)NC(=O)[C@H](NC(=O)[C@@H](CCCNC(=N)N)NC(=O)[C@H]1CCCN1C(=O)[C@H](N)CCCNC(=N)N)[C@H](C)O)C(=O)N[C@H](Cc1c[nH]cn1)C(=O)N[C@@H](C(=O)N[C@H](Cc1c[nH]cn1)C(=O)N[C@H](CCCNC(=N)N)C(=O)N[C@H](CC(N)=O)C(=O)N[C@H](CCCNC(=N)N)C(=O)N[C@H](CCCNC(=N)N)C(=O)N1CCC[C@@H]1C(=O)N[C@H](CCCNC(=N)N)C(=O)N[C@@H](C(=O)N[C@H](CCCNC(=N)N)C(=O)N[C@H](CC(C)C)C(=O)N[C@H](Cc1c[nH]cn1)C(=O)N[C@@H](C(=O)N[C@H](Cc1c[nH]cn1)C(=O)N[C@H](CCCNC(=N)N)C(=O)N[C@H](CC(N)=O)C(=O)N[C@H](CCCNC(=N)N)C(N)=O)[C@H](C)O)[C@H](C)O)[C@H](C)O)”, which Object recognition (TgSwDI mouse model [3]; 1 mg/4 weeks i.p. (micropump), FIG. 1) is on record?
Its Object recognition is “significant”.

And the Object recognition (TgSwDI mouse model [3]; 1 mg/4 weeks i.p. (micropump), FIG. 1, listed as D3D3)?
The Object recognition was “considerably improves cognition”.

What about the Object recognition (TgSwDI mouse model [3]; 1 mg/4 weeks i.p. (micropump), FIG. 1, listed as D3D3 (amidated)) of the same substance?
Its Object recognition is “spend much more time with the new object”.

What about the SHIRPA (TBA 2.1 mice [5]) of the same substance?
Its SHIRPA is “showed no significant worsening of the SHIRPA value; also recorded: acts more efficiently than the simple peptide D3 (amidated)”.

And the Rotarod (TBA 2.1 mice [6]; FIG. 2, listed as D3D3)?
The Rotarod was “able to stop the progression of the phenotype”.

And the Rotarod (TBA 2.1 mice [6]; FIG. 2, listed as D3D3 (amidated))?
The Rotarod was “exhibited no worsening of the neuromotor symptoms”.
